Measured values from patent US10881679B2, “Application of a phillyrin/phillygeninin composition in preparing a medicine or health care product for alleviating or/and treating viral diseases, and medicine or health care product for treating viral diseases” (priority 2014, dated 2021).
Marks after values point to notes of the source that are not given here.

Assays:
Vero cells = experiment: Cytotoxicity test (MTT) on Vero cells; assay type: cell-based, African green monkey; conditions: 72 h
Experimental: Cytotoxicity test: the drugs were diluted according to the concentrations shown in table 1-1 for determination of cytotoxicity. […] In addition, 6 wells were set up as normal control group (without drugs) while another 6 pores as blank control group (medium only). Cells were grown in a 37° C. incubator under 5% CO2. […] After 72 h, 20 μL MTT solution (5 mg·mL^−1) was added into each well to continue incubation for 4 h. The culture medium in each well was sucked and discarded, 100 μL DMSO was added to each well. Then the culture was shaken for 5 min, measured OD value at 492 nm to calculate the cell survival ratio. The cell survival ratio was analyzed using a Probit regression model in SPSS 18.0 statistical software, and the maximal nontoxic concentration (TC0) and median toxic concentration (TC50) of drugs against Vero cells were calculated.

[1] = test system: Coxsackie virus B3 (CVB3); experiment: Impact on virus-induced cytopathic effect in Vero cells (MTT): CVB3; assay type: cell-based; conditions: CVB3 100TCID50, Vero, 72 h; drug g/L as Table 1-2
influenza virus = assay type: in vivo, Kunming mice; conditions: 13.0 mg/kg/d i.g. 5 days
[2] = test system: sweat gland epithelial cells of rat paws; experiment: Sweat secretion of rat paws (histomorphological observation method); assay type: in vivo, Wistar rats; conditions: dose not given; i.g., 1 h after administration
Text: This test is based on a mechanism that when a rat is in an excited state, in addition to the increase of sweat secretion of sweat glands, the morphology of sweat gland epithelial cells changes accordingly. Under an optical microscope, it can be seen that the sweat gland epithelial cell vacuoles increase in number and expand. Under an electron microscope, such expanded vacuoles appear to be mitochondria in the sweat gland epithelial cell swelling, breakage and fusion and expansion of secretory vesicle. Therefore, through histomorphological observation of sweat gland epithelial tissue of a rat paw, secretory activities of the sweat gland can be known.
300 Wistar rats with equal male and female number, weighing 120˜160 g were used. These rats were randomly divided into 30 groups by weight and gender: control groups (0.5% of methyl cellulose), phillygeninin groups, phillyrin groups, low, medium and high dose groups (2.5, 5, 10 mg/kg) of phillyrin/phillygeninin compositions A and B separately, and positive drug pilocarpine groups (35 mg/kg). Each group has 10 rats, the test is repeated 3 times for each group. Pilocarpine solution was administered by subcutaneous injection, the remaining groups were subjected to intragastric administration. After administration of the 0.5% of methyl cellulose in the control group for one hour, after administration of the pilocarpine in the positive drug group for 30 min, and after administration of the phillyrin, the phillygeninin and the phillyrin/phillygeninin composition for one hour, the right hind limb was instantly cut off at the ankle joint to immediately take down the footpad of the right hind limb and placed into 10% of formaldehyde solution. The footpads were fixed, dehydrated, embedded, sliced and stained with HE by using conventional methods. Changes in sweat gland epithelial cells of the rat paws from each group were observed under an optical microscope, to mainly observe the percentage of vacuolization. The differences among the various groups was performed through X^2 test for statistical analysis. The above test was repeated 3 times. Percentage of vacuolization=(the number of vacuolized sweat glands)/(the number of sweat glands observed)×100%.

[3] = test system: rat fever induced by beer yeast; experiment: Rat fever induced by beer yeast (Saccharomyces cerevisiae); assay type: in vivo, Wistar rats; conditions: 10 mg/kg i.g.
Experimental: Male Wistar rats with a weight of 180˜200 g were used. Normal anal temperature of each rat was measured twice (at a certain interval) with a WSC-411P portable digital thermometer, and a mean of the two measurement values was taken as a normal body temperature of the rat. Then, 300 rats with body temperature at 36.5˜38° C. were selected and randomly divided into 30 groups by weight: model groups (0.5% methyl cellulose), phillyrin/phillygeninin compositions A and B that are divided into low, medium and high dose groups (2.5, 5, 10 mg/kg) respectively, phillyrin groups (13 mg/kg), phillygeninin groups (13 mg/kg), and positive drug paracetamol groups (100 mg/kg). Each group has 10 rates, and the test is repeated 3 times for each group. 10 mL/kg of 10% fresh Saccharomyces cerevisiae suspension was subcutaneously injected to the back of the rats of each group to induce fever. After administration of 10% fresh Saccharomyces cerevisiae suspension for 6.0 h, the phillyrin/phillygeninin composition and the paracetamol positive drug were administered by intragastric administration, and the same volume of 0.5% methyl cellulose is administrated to the model group by intragastric administration. Rectal temperatures were respectively measured at 1, 2, 3 and 4 h after the administration. Changes in the body temperature were observed and difference between the groups was compared by inter-group t test processing through antipyretic percentage. The above test was repeated totally 3 times.

[4] = test system: rat paw swelling induced by carrageenin; experiment: Rat paw swelling induced by carrageenin; assay type: in vivo, Wistar rats; conditions: 10.0 mg/kg
Experimental: Each group has 10 rats. Rats in each group were all administered by […] through the sublingual vein. Normal volume of the right hind paw of each rat in each group was measured in capillary magnification measurement method. In order to avoid errors, the measurement should be carried out in a fixed position and operated by the same person before and after administration. A mean of the two measurement values was taken as the normal volume of the right hind paw of a rat before administration. […] The difference between the groups was compared by inter-group t test processing through the difference percentage (swelling ratio) of the paw volume before and after the induced rat inflammation. [formula] Results

[5] = 15 min after inflammation induction
[6] = 30 min after inflammation induction
[7] = 60 min after inflammation induction
[8] = 120 min after inflammation induction
[9] = 180 min after inflammation induction
[10] = 240 min after inflammation induction
[11] = 300 min after inflammation induction
[12] = 360 min after inflammation induction

SMILES	half toxic concentration (TC50) (Vero cells)	maximal non-toxic concentration (TC0) (Vero cells)	antiviral effective rate (ER %) [1]	Hemagglutination titer (InX) (influenza virus)	Inhibition rate (%) of hemagglutination titer (influenza virus)	Number of sweat glands of vacuole [2]	percentage of vacuolization (%) [2]	Body temperature ([3]; 1 h after administration)	antipyretic percentage (%) ([3]; 1 h after administration)	Body temperature ([3]; 2 h after administration)	antipyretic percentage (%) ([3]; 2 h after administration)	Body temperature ([3]; 3 h after administration)	antipyretic percentage (%) ([3]; 3 h after administration)	Body temperature ([3]; 4 h after administration)	antipyretic percentage (%) ([3]; 4 h after administration)	Swelling percentage (%) [4, 5]	Swelling percentage (%) [4, 6]	Swelling percentage (%) [4, 7]	Swelling percentage (%) [4, 8]	Swelling percentage (%) [4, 9]	other results
COc1cc([C@H]2OC[C@H]3[C@@H]2CO[C@H]3c2ccc(OC)c(OC)c2)ccc1O [Phillygeninin, phillygeninin]	297 µg/mL	0.011 g/L	50.89%	22.61 ± 1.059	30.22%	79	20.26** %	39.31 ± 0.48 °C	−0.33 ± 0.41%	39.04 ± 0.45 °C	−0.69 ± 0.93 %	38.91 ± 0.40 °C	−1.03 ± 1.18 %	38.70 ± 0.31 °C	−1.55 ± 1.23 %	14.9 ± 6.13%	21.9 ± 9.72%	27.1 ± 13.5%	30.7 ± 10.2 %	33.8 ± 12.1 %	Swelling percentage (%) [4, 10]: 31.0 ± 11.3 %; Swelling percentage (%) [4, 11]: 35.8 ± 13.5 %; Swelling percentage (%) [4, 12]: 36.4 ± 10.2%
COc1ccc([C@H]2OCC3C2CO[C@H]3c2ccc(O[C@@H]3OC(CO)[C@@H](O)[C@H](O)C3O)c(OC)c2)cc1OC (stereo partly shown) [phillyrin]	550 µg/mL	0.0066 g/L	75.27** %	22.06 ± 1.120	31.90%	86	22.15** %	39.13 ± 0.52 °C	−0.60 ± 0.39%	38.77 ± 0.42 °C	−0.92 ± 0.93 %	38.63 ± 0.40 °C	−1.29 ± 1.18 %	38.46 ± 0.31 °C	−1.70 ± 1.23 %	12.9 ± 8.41%	19.9 ± 9.55%	21.8 ± 11.8 %	28.9 ± 14.0 %	30.8 ± 15.4 %	Swelling percentage (%) [4, 10]: 29.9 ± 11.1 %; Swelling percentage (%) [4, 11]: 33.5 ± 10.0 %; Swelling percentage (%) [4, 12]: 32.2 ± 11.9 %
